Results from patent US5157049A, “Method of treating cancers sensitive to treatment with water soluble derivatives of taxol” (The United States of America as represented by the …, priority 1991, dated 1992).
Where “and” joins values, the source holds several entries; their conditions need not be identical. Equal values may be shown once. Entries after “also recorded” stand apart in the source; their conditions may differ. Where a name gives a salt, the structure may show the parent alone.

What was measured:
B16 Melanoma = experiment: Antitumor activity in the B16 melanoma system (NCI screen); conditions: for antitumor activity (in words): summary statements on in vivo screening, Table VI; for % T/C (median lifetime) / cures (live animals day 60) / Survivors Day 4 / WT Diff, g (T - C): B16, Q01D × 09
Procedure: Another approach to make basic derivatives is based on the concept of taking an existing hydrolysable derivative and further modifying it to form a derivative that allows for stepwise hydrolysis.
Antitumor Activity in the B16 Melanoma System^a
^a Screening was carried out under the auspices of the National Cance
Institute. For detailed explanations of procedures and data, see
Instruction 14, Screening Data Summary Interpretation and Outline of
Current Screen, Drug Evaluation Branch, Developmental Therapeutics
Program, Division of Cancer Treatment, National Cancer Institute,
Bethesda, Maryland 20892.
^b Q01D × 09. Single dose for 9 days; given in milligrams per
kilogram body weight per injection.
^c Abbreviations: survivors day 4, live animals on the fourth day of
testing/total animal; wt diff, g (T - C), the difference in body weight i
grams between test and control animals; % T/C, the median lifetime of tes
animals divided by the median lifetime of control animals, times 100; for
the solid tumor system % T/C is 100 × (change in treated tumor wt 1
day 11 - day 0)/change in control tumor wt.) if the tumor grows or 100
× (change in treated tumor wt./initial treated tumor wt.) if the
tumor regresses; cures, number of live animals on the last day of
evaluation for the B16 melanoma system (day 60) or number of animals
without measurable tumor on day 11 for the MX1 mammary tumor system.

Aqueous solubility = conditions: water
[1] = 7 mg/kg (so in the source) per injection

## CC(=O)O[C@H]1C(=O)[C@@]2(C)[C@H]([C@H](OC(=O)c3ccccc3)[C@]3(O)C[C@H](OC(=O)[C@H](OC(=O)CCCC(=O)NCCCN(C)C)[C@@H](NC(=O)c4ccccc4)c4ccccc4)C(C)=C1C3(C)C)[C@]1(OC(C)=O)CO[C@@H]1C[C@@H]2O [Example 25, Aminoamide Derivative of 2'-Glutaryltaxol]
B16 Melanoma
  antitumor activity (in words): extremely potent and active

## CC(=O)O[C@H]1C(=O)[C@@]2(C)[C@H]([C@H](OC(=O)c3ccccc3)[C@]3(O)C[C@H](OC(=O)[C@H](OC(=O)CCC(=O)O)[C@@H](NC(=O)c4ccccc4)c4ccccc4)C(C)=C1C3(C)C)[C@]1(OC(C)=O)CO[C@@H]1C[C@@H]2O [Example 12]
B16 Melanoma; 1.25 mg/kg per injection
  % T/C (median lifetime): 111%
B16 Melanoma; 2.5 mg/kg per injection
  % T/C (median lifetime): 159% and 125%
  cures (live animals day 60): 1
B16 Melanoma; 5 mg/kg per injection
  % T/C (median lifetime): 166% and 131%
B16 Melanoma; 10 mg/kg per injection
  % T/C (median lifetime): 183% and 160%
  cures (live animals day 60): 1
B16 Melanoma; 20 mg/kg per injection
  % T/C (median lifetime): 201% and 160%
B16 Melanoma; 40 mg/kg per injection
  % T/C (median lifetime): 218% and 177%
  cures (live animals day 60): 2
B16 Melanoma; listed as 1, sodium salt
  antitumor activity (in words): improved antitumor activity as compared to the free acid
Aqueous solubility; listed as 1, sodium salt
  aqueous solubility: about 0.1%

## CC(=O)O[C@H]1C(=O)[C@@]2(C)[C@H]([C@H](OC(=O)c3ccccc3)[C@]3(O)C[C@H](OC(=O)[C@H](OC(=O)CCC(=O)O)[C@@H](NC(=O)c4ccccc4)c4ccccc4)C(C)=C1C3(C)C)[C@]1(OC(C)=O)CO[C@@H]1C[C@@H]2O [Example 1, 2' Succinyltaxol]
B16 Melanoma; 2.5 mg/kg per injection
  % T/C (median lifetime): 119%
B16 Melanoma; 5 mg/kg per injection
  % T/C (median lifetime): 154%
B16 Melanoma; 10 mg/kg per injection
  % T/C (median lifetime): 159%
  cures (live animals day 60): 1
B16 Melanoma; 20 mg/kg per injection
  % T/C (median lifetime): 154%
B16 Melanoma; 40 mg/kg per injection
  % T/C (median lifetime): 185%
  cures (live animals day 60): 2
Aqueous solubility
  aqueous solubility (in words): not water soluble

## CC(=O)O[C@H]1C(=O)[C@@]2(C)[C@H]([C@H](OC(=O)c3ccccc3)[C@]3(O)C[C@H](OC(=O)[C@H](OC(=O)CCCC(=O)O)[C@@H](NC(=O)c4ccccc4)c4ccccc4)C(C)=C1C3(C)C)[C@]1(OC(C)=O)CO[C@@H]1C[C@@H]2O [Example 16]
B16 Melanoma; 6.63 mg/kg per injection
  % T/C (median lifetime): 207%
  Survivors Day 4: 8/8
  WT Diff, g (T - C): 0.4 g
B16 Melanoma; 13.25 mg/kg per injection
  % T/C (median lifetime): 291%
  Survivors Day 4: 8/8
  WT Diff, g (T - C): 0.4 g
B16 Melanoma; 26.5 mg/kg per injection
  % T/C (median lifetime): 239%
  Survivors Day 4: 8/8
  WT Diff, g (T - C): 0.4 g
  cures (live animals day 60): 2
B16 Melanoma; 53 mg/kg per injection
  % T/C (median lifetime): 300%
  Survivors Day 4: 8/8
  WT Diff, g (T - C): 0.4 g
  cures (live animals day 60): 1
B16 Melanoma
  antitumor activity (in words): very active and potent; also recorded: improved biological properties as compared to the corresponding succinates of Examples 12 and 8

## CC(=O)O[C@H]1C(=O)[C@]2(C)[C@@H](OC(=O)CCC(=O)O)C[C@H]3OC[C@@]3(OC(C)=O)[C@H]2[C@H](OC(=O)c2ccccc2)[C@]2(O)C[C@H](OC(=O)[C@H](OC(=O)CCC(=O)O)[C@@H](NC(=O)c3ccccc3)c3ccccc3)C(C)=C1C2(C)C [Example 2, 2'7-Disuccinyltaxol]
B16 Melanoma; 1 mg/kg (so in the source) per injection
  % T/C (median lifetime): 124%
B16 Melanoma; 2.75 mg/kg per injection
  % T/C (median lifetime): 109%
B16 Melanoma; 5.5 mg/kg per injection
  % T/C (median lifetime): 113%
B16 Melanoma; 22 mg/kg per injection
  % T/C (median lifetime): 105%
B16 Melanoma; 44 mg/kg per injection
  % T/C (median lifetime): 114%
B16 Melanoma
  antitumor activity (in words): considerably less active than the corresponding 2'-mono derivative of Example 1 and its salts
Aqueous solubility
  aqueous solubility (in words): not water soluble

## CC(=O)O[C@H]1C(=O)[C@]2(C)[C@@H](OC(=O)CCC(=O)O)C[C@H]3OC[C@@]3(OC(C)=O)[C@H]2[C@H](OC(=O)c2ccccc2)[C@]2(O)C[C@H](OC(=O)[C@H](OC(=O)CCC(=O)O)[C@@H](NC(=O)c3ccccc3)c3ccccc3)C(C)=C1C2(C)C [Example 2, Na-Salt]
B16 Melanoma; 2.75 mg/kg per injection, listed as 2, Na-Salt
  % T/C (median lifetime): 120%
B16 Melanoma; 5.5 mg/kg per injection, listed as 2, Na-Salt
  % T/C (median lifetime): 114%
B16 Melanoma; 11 mg/kg per injection
  % T/C (median lifetime): 149%
B16 Melanoma; 22 mg/kg per injection, listed as 2, Na-Salt
  % T/C (median lifetime): 109%
B16 Melanoma; 44 mg/kg per injection, listed as 2, Na-Salt
  % T/C (median lifetime): 166%
B16 Melanoma; listed as 2, sodium salt
  antitumor activity (in words): improved antitumor activity as compared to the free acid; also recorded: considerably less active than the corresponding 2'-mono derivative of Example 1 and its salts
Aqueous solubility; aqueous solubility
  solubility: ~3000 µg/mL

## CC(=O)O[C@H]1C(=O)[C@@]2(C)[C@H]([C@H](OC(=O)c3ccccc3)[C@]3(O)C[C@H](OC(=O)[C@H](OC(=O)CCCC(=O)O)[C@@H](NC(=O)c4ccccc4)c4ccccc4)C(C)=C1C3(C)C)[C@]1(OC(C)=O)CO[C@@H]1C[C@@H]2O [Example 17]
B16 Melanoma; 6.13 mg/kg per injection
  % T/C (median lifetime): 159%
  Survivors Day 4: 8/8
  WT Diff, g (T - C): 0.4 g
B16 Melanoma; 12.25 mg/kg per injection
  % T/C (median lifetime): 192%
  Survivors Day 4: 8/8
  WT Diff, g (T - C): 0.6 g
B16 Melanoma; 24.5 mg/kg per injection
  % T/C (median lifetime): 225%
  Survivors Day 4: 7/7
  WT Diff, g (T - C): 1.5 g
B16 Melanoma; 49 mg/kg per injection
  % T/C (median lifetime): 339%
  Survivors Day 4: 7/7
  WT Diff, g (T - C): 0.4 g
B16 Melanoma
  antitumor activity (in words): very active and potent; also recorded: improved biological properties as compared to the corresponding succinates of Examples 12 and 8

## CC(=O)O[C@H]1C(=O)[C@@]2(C)[C@H]([C@H](OC(=O)c3ccccc3)[C@]3(O)C[C@H](OC(=O)[C@H](OC(=O)CCC(=O)O)[C@@H](NC(=O)c4ccccc4)c4ccccc4)C(C)=C1C3(C)C)[C@]1(OC(C)=O)CO[C@@H]1C[C@@H]2O [Example 11]
B16 Melanoma; 6.25 mg/kg per injection
  % T/C (median lifetime): 125%
B16 Melanoma; 12.5 mg/kg per injection
  % T/C (median lifetime): 134%
B16 Melanoma; 25 mg/kg per injection
  % T/C (median lifetime): 176%
B16 Melanoma; 50 mg/kg per injection
  % T/C (median lifetime): 241%
B16 Melanoma
  antitumor activity (in words): much more active than the compound of Example 12
Aqueous solubility
  aqueous solubility: about 1%
  aqueous solubility (in words): greatly improved aqueous solubility; also recorded: although still soluble, the solutions were not clear and became very viscous

## CC(=O)O[C@H]1C(=O)[C@@]2(C)[C@H]([C@H](OC(=O)c3ccccc3)[C@]3(O)C[C@H](OC(=O)[C@H](OC(=O)CCC(=O)O)[C@@H](NC(=O)c4ccccc4)c4ccccc4)C(C)=C1C3(C)C)[C@]1(OC(C)=O)CO[C@@H]1C[C@@H]2O [Example 8, 2'-Succinyltaxol, Triethanolamine Salt]
B16 Melanoma; 6.75 mg/kg per injection
  % T/C (median lifetime): 230%
  cures (live animals day 60): 1
B16 Melanoma; [1]
  % T/C (median lifetime): 314%
  cures (live animals day 60): 3
B16 Melanoma; 13.5 mg/kg per injection
  % T/C (median lifetime): 264%
  cures (live animals day 60): 1
B16 Melanoma; 54 mg/kg per injection
  % T/C (median lifetime): TOXIC
B16 Melanoma
  antitumor activity (in words): much more active than the compound of Example 12; also recorded: especially active and potent
Aqueous solubility
  aqueous solubility: about 1%
  aqueous solubility (in words): greatly improved aqueous solubility; also recorded: although still soluble, the solutions were not clear and became very viscous
